Source: ChEMBL document CHEMBL5726731, “Substituted benzenesulfonamides as sodium channel blockers” (2019)

Tests used:
[1] = (§1) Measurement of Sodium Ion Channel Blocking Effects: In order to measure the sodium ion channel blocking effect, an IonFlux16 Auto patch clamp system (Fluxion, Inc.) and a plate for exclusive use were used. The cells were distributed in an extracellular solution (4 mM KCl, 138 mM NaCl, 1 mM MgCl2, 1.8 mM CaCl2, 5.6 mM glucose, 10 mM HEPES, pH 7.45), and then dispensed in the specified region of the plate, and each of the prepared compound samples was diluted at various concentrations, and then dispensed in the specified region of the plate.; type: cell-based
[2] = as §1; type: cell-based; remark: listed apart in the source

IC50 [1] [nM] | IC50 [2] [nM] | Compound
250 |  | CNC1CCN(c2cc(F)ccc2Nc2cc(F)c(S(=O)(=O)Nc3ccncn3)cc2Cl)C1 (stereo not drawn)
60 | > 10000 | CNCCN(C)c1cc(C(F)(F)F)ccc1Nc1cc(F)c(S(=O)(=O)Nc2ncc(F)cn2)cc1Cl
1400 |  | CNC1CCN(c2cc(F)ccc2Nc2cc(F)c(S(=O)(=O)Nc3ncns3)cc2Cl)C1 (stereo not drawn)
390 |  | CNC1CCN(c2cc(F)ccc2Nc2cc(F)c(S(=O)(=O)Nc3ccn(C)n3)cc2Cl)C1 (stereo not drawn)
103 | 6720 | C[C@@H]1CNCCN1c1cc(Cl)ccc1Nc1cc(F)c(S(=O)(=O)Nc2cscn2)cc1Cl
100 |  | CN(C)CCN(C)c1cc(F)ccc1Nc1cc(F)c(S(=O)(=O)Nc2cscn2)cc1Cl
4 |  | CNCCN(C)c1ccccc1Nc1cc(F)c(S(=O)(=O)Nc2ncc(Cl)s2)cc1Cl
86 | > 10000 | CNC1CCN(c2c(F)cccc2Nc2cc(F)c(S(=O)(=O)Nc3cscn3)cc2Cl)C1 (stereo not drawn)
470 |  | CNCCN(C)c1cc(OC)ccc1Nc1cc(F)c(S(=O)(=O)Nc2ncc(F)cn2)cc1Cl
120 | > 10000 | CNCCN(C)c1cc(C#N)ccc1Nc1cc(F)c(S(=O)(=O)Nc2cscn2)cc1Cl
49 | > 10000 | CN[C@@H]1CCCN(c2cc(F)ccc2Nc2ccc(S(=O)(=O)Nc3cscn3)cc2Cl)C1
360 | > 10000 | CNC1CCN(c2cc(F)ccc2Nc2cc(F)c(S(=O)(=O)Nc3cc(C)on3)cc2Cl)C1 (stereo not drawn)
50 |  | CNCCN(C)c1cc(F)ccc1Nc1cc(F)c(S(=O)(=O)Nc2ncc(C)s2)cc1Cl
1090 | > 10000 | CNCCN(C)c1cc(C#N)ccc1Nc1cc(F)c(S(=O)(=O)Nc2ncc(F)cn2)cc1Cl
28 | > 10000 | CN1CCN(c2cc(OC(F)(F)F)ccc2Nc2cc(F)c(S(=O)(=O)Nc3cscn3)cc2Cl)CC1
53 | > 10000 | CNC1CCN(c2ccccc2Nc2ccc(S(=O)(=O)Nc3cscn3)c(F)c2)C1 (stereo not drawn)
58 | > 10000 | CNC1CCN(c2cc(C(F)(F)F)ccc2Nc2ccc(S(=O)(=O)Nc3cscn3)c(F)c2)C1 (stereo not drawn)
70 |  | CNCCN(C)c1ccccc1Nc1cc(F)c(S(=O)(=O)Nc2ccc(F)cn2)cc1Cl
120 |  | CNCCN(C)c1cc(Cl)ccc1Nc1cc(F)c(S(=O)(=O)Nc2ncc(F)cn2)cc1Cl
184 |  | CNCCN(C)c1cc(OC)ccc1Nc1cc(F)c(S(=O)(=O)Nc2ncc(F)s2)cc1Cl
460 |  | CNCCN(C)c1cc(C#N)ccc1Nc1cc(F)c(S(=O)(=O)Nc2ccccn2)cc1Cl
50 |  | CNCCN(C)c1cc(Cl)ccc1Nc1cc(F)c(S(=O)(=O)Nc2cscn2)cc1Cl

IC50 [1] [nM] | IC50 [2] [nM] | Compound
360 |  | CNCCN(C)c1cc(F)ccc1Nc1cc(F)c(S(=O)(=O)Nc2ncco2)cc1Cl
60 |  | CN(C)CCN(C)c1cc(F)ccc1Nc1cc(F)c(S(=O)(=O)Nc2ncc(Cl)s2)cc1Cl
140 |  | CNCCN(C)c1cc(OC)ccc1Nc1cc(F)c(S(=O)(=O)Nc2cscn2)cc1Cl
20 |  | CNCCN(C)c1cc(Cl)ccc1Nc1cc(F)c(S(=O)(=O)Nc2nccs2)cc1Cl
 | > 10000 | CNC1CCN(c2cc(F)ccc2Nc2cc(F)c(S(=O)(=O)Nc3cscn3)cc2Cl)C1 (stereo not drawn)
13 | > 10000 | CNC1CCN(c2ccccc2Nc2ccc(S(=O)(=O)Nc3cscn3)cc2Cl)C1 (stereo not drawn)
396 | > 10000 | CNC1CCN(c2cc(F)ccc2Nc2ccc(S(=O)(=O)Nc3cscn3)cc2)C1 (stereo not drawn)
350 |  | CN(C)CCN(C)c1cc(F)ccc1Nc1ccc(S(=O)(=O)Nc2cscn2)cc1Cl
300 | > 10000 | CNC1CCN(c2cc(F)ccc2Nc2cc(F)c(S(=O)(=O)Nc3cnccn3)cc2Cl)C1 (stereo not drawn)
40 | > 10000 | CNCCN(C)c1ccccc1Nc1cc(F)c(S(=O)(=O)Nc2cscn2)cc1Cl
3670 |  | CN(C)CCN(C)c1ccccc1Nc1cc(F)c(S(=O)(=O)Nc2ncc(Cl)s2)cc1Cl
1500 | > 10000 | C[C@H]1CN(c2cc(Cl)ccc2Nc2cc(F)c(S(=O)(=O)Nc3cscn3)cc2Cl)CCN1
50 |  | CNCCN(C)c1ccccc1Nc1cc(F)c(S(=O)(=O)Nc2nccs2)cc1Cl
70 |  | CNCCN(C)c1cc(C(F)(F)F)ccc1Nc1cc(F)c(S(=O)(=O)Nc2ccccn2)cc1Cl
9 | 1830 | CNCCN(C)c1cc(F)ccc1Nc1cc(F)c(S(=O)(=O)Nc2ncc(F)s2)cc1Cl
80 |  | CNCCN(C)c1cc(Cl)ccc1Nc1cc(F)c(S(=O)(=O)Nc2ccc(F)cn2)cc1Cl
66 | > 10000 | CN[C@@H]1CCCN(c2cc(F)ccc2Nc2cc(F)c(S(=O)(=O)Nc3cscn3)cc2Cl)C1
20 |  | CNCCN(C)c1cc(C#N)ccc1Nc1cc(F)c(S(=O)(=O)Nc2nccs2)cc1Cl
27 |  | CNCCN(C)c1ccccc1Nc1cc(F)c(S(=O)(=O)Nc2ncc(F)s2)cc1Cl
110 | > 10000 | CNCCN(C)c1cc(F)ccc1Nc1cc(F)c(S(=O)(=O)Nc2ccccn2)cc1Cl
200 |  | CNCCN(C)c1cc(OC)ccc1Nc1cc(F)c(S(=O)(=O)Nc2ccc(F)cn2)cc1Cl
20 | > 10000 | CNCCN(C)c1cc(F)ccc1Nc1cc(F)c(S(=O)(=O)Nc2nccs2)cc1Cl

IC50 [1] [nM] | IC50 [2] [nM] | Compound
> 10000 |  | CNCCN(C)c1ccccc1Nc1cc(F)c(S(=O)(=O)Nc2cc(C(C)(C)C)on2)cc1Cl
10 |  | CNCCN(C)c1cc(C(F)(F)F)ccc1Nc1cc(F)c(S(=O)(=O)Nc2nccs2)cc1Cl
6 |  | CNCCN(C)c1cc(OC)ccc1Nc1cc(F)c(S(=O)(=O)Nc2ncc(Cl)s2)cc1Cl
240 |  | CN(C)CCN(C)c1cc(F)ccc1Nc1cc(F)c(S(=O)(=O)Nc2nccs2)cc1Cl
100 | > 10000 | CNCCN(C)c1ccccc1Nc1cc(F)c(S(=O)(=O)Nc2ncc(F)cn2)cc1Cl
50 |  | CNCCN(C)c1cc(C(F)(F)F)ccc1Nc1cc(F)c(S(=O)(=O)Nc2ccc(F)cn2)cc1Cl
20 |  | CNCCN(C)c1ccccc1Nc1cc(F)c(S(=O)(=O)Nc2cc(C)on2)cc1Cl
> 10000 | > 10000 | CNC1CCN(c2cc(F)ccc2Nc2cc(F)c(S(=O)(=O)Nc3cncnc3)cc2Cl)C1 (stereo not drawn)
12 | > 10000 | CNC1CCN(c2cc(OC)ccc2Nc2cc(F)c(S(=O)(=O)Nc3cscn3)cc2Cl)C1 (stereo not drawn)
51 | > 10000 | CNC1CCN(c2ccccc2Nc2ccc(S(=O)(=O)Nc3cscn3)cc2)C1 (stereo not drawn)
20 |  | CNCCN(C)c1cc(OC)ccc1Nc1cc(F)c(S(=O)(=O)Nc2nccs2)cc1Cl
26 | > 10000 | CNC1CCN(c2cc(Cl)ccc2Nc2cc(F)c(S(=O)(=O)Nc3cscn3)cc2Cl)C1 (stereo not drawn)
190 |  | CNCCN(C)c1cc(F)ccc1Nc1cc(F)c(S(=O)(=O)Nc2cc(C(C)(C)C)on2)cc1Cl
6580 |  | CC(=O)N[C@@H]1CCN(c2cc(F)ccc2Nc2ccc(S(=O)(=O)Nc3cscn3)cc2Cl)C1
8 | 5540 | CNCCN(C)c1cc(F)ccc1Nc1cc(F)c(S(=O)(=O)Nc2ncc(Cl)s2)cc1Cl
110 | > 10000 | CNC1CCN(c2cc(F)ccc2Nc2cc(F)c(S(=O)(=O)Nc3ncc(F)cn3)cc2Cl)C1 (stereo not drawn)
230 | > 10000 | CNCCN(C)c1cc(C#N)ccc1Nc1cc(F)c(S(=O)(=O)Nc2ccc(F)cn2)cc1Cl
30 | 8200 | CNCCN(C)c1cc(C(F)(F)F)ccc1Nc1cc(F)c(S(=O)(=O)Nc2cscn2)cc1Cl
120 |  | CNCCN(C)c1ccccc1Nc1cc(F)c(S(=O)(=O)Nc2ccccn2)cc1Cl
> 10000 |  | CNCCN(C)c1ccccc1Nc1cc(F)c(S(=O)(=O)Nc2cc(C)[nH]n2)cc1Cl
240 |  | CNCCN(C)c1cc(F)ccc1Nc1cc(F)c(S(=O)(=O)Nc2cc(C)[nH]n2)cc1Cl
